Measured values reported in US5356888A, “1,1-dioxo-cephem-4-carbothiolic acid derivatives” (Farmitalia Carlo Erba, priority 1988, dated 1994).

Biological target: T1, human leukocyte elastase (HLE) (Homo sapiens, UniProt P08246)
T1 construct: purchased Calbiochem Lot 702038
T1 sequence (P08246 30-267): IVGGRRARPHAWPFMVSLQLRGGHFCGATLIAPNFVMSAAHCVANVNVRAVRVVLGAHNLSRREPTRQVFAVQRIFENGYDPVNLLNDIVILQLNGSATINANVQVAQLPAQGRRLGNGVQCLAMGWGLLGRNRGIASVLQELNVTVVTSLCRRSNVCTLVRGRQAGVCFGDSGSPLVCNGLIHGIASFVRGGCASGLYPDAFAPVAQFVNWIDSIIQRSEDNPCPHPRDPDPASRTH
Test: Kinetic parameters for HLE inhibition (release of 7-amino-4-methylcoumarin from N-methoxysuccinyl-alanylprolyl-valyl-7-amido-4-methylcoumarin, fluorescence detection)
Format: biochemical
Details: 37° C., 0.027 M pH 7.4 phosphate buffer, 1% DMSO, 1% MeCN, NaCl (I=0.15); for kon: read-out: kon (rate of formation of the HLE-inhibitor complex); for Ki: steady state, read-out: Ki^ss (apparent dissociation constant of the HLE-inhibitor complex at steady state)
Excerpt: Km =Michaelis constant for the enzyme-substrate pair (independently determined under the same experimental conditions).

Row | kon [M⁻¹ s⁻¹] | Ki [nM] | SMILES
1 | 150000 | 16 | COCC1=C(C(=O)SC(C)(C)C)N2C(=O)[C@H](Cl)[C@H]2S(=O)(=O)C1 [Comp. 59, t-Butyl 7S-chloro-3-methoxymethyl-8-oxo-5-thia-1-azabicyclo [4,2,0]oct-2-ene-5,5-dioxide-2-carbothiolate]
2 |  | 4.3 | Cn1nnnc1SCC1=C(C(=O)SC(C)(C)C)N2C(=O)[C@H](Cl)[C@H]2S(=O)(=O)C1 [Comp. 60, t-Butyl 7S-chloro-3-(1-methyl-1,2,3,4-tetrazol-5-yl) thiomethyl-8-oxo-5-thia-1-azabicyclo[4,2,0]oct-2-ene-5,5-dioxide-2-carbothiolate]
3 | 480000 | 2.6 | CC(=O)OCC1=C(C(=O)SC(C)(C)C)N2C(=O)[C@H](Cl)[C@H]2S(=O)(=O)C1 [Comp. 3]

Row | SMILES | kon [M⁻¹ s⁻¹] | Ki [nM]
4 | CC(=O)OCC1=C(C(=O)SCc2ccccc2)N2C(=O)[C@H](Cl)[C@H]2S(=O)(=O)C1 [Comp. 11, Benzyl 3-acetoxymethyl-7S-chloro-8-oxo-5-thia-1-azabicyclo-[4,2,0]oct-2-ene-5,5-dioxide-2-carbothiolate] | 1.26e+06 | 8.2
